In PMC12541620 (Acta Pharmaceutica Sinica. B, 2025):
Read-outs that look alike come from different tables or passages of the source. One block for each molecule: values may come before it.

Tests used:
[1] = target: T1, hCES2A (Homo sapiens, UniProt O00748); assay: hCES2A inhibition assay; assay type: biochemical; details: for Ratio: IC50 3 min / IC50 33 min
T1 sequence (O00748 27-559): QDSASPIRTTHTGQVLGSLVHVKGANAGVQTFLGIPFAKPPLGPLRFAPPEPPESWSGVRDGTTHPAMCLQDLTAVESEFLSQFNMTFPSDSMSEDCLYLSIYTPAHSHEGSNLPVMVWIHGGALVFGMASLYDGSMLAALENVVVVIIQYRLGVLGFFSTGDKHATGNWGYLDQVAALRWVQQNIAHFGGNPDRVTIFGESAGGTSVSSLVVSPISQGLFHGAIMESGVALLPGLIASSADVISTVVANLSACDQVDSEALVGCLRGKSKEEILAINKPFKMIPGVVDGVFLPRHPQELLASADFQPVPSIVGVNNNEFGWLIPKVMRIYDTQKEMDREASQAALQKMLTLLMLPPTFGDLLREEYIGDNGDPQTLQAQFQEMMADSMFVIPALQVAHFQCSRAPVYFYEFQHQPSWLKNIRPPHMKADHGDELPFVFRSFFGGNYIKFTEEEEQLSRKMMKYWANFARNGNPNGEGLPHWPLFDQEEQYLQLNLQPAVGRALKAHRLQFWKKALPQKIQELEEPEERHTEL

[2] = target: hAChE (Homo sapiens, UniProt P22303); assay: hAChE inhibition assay; assay type: biochemical
[3] = target: T1, hCES2A; assay: dialysis assay; assay type: biochemical; details: 10 μmol/L, 33 min preincubation, dialysis 2 and 4 h
[4] = system: irinotecan-triggered gut toxicity (ITGT) in tumor-bearing mice; assay: irinotecan-triggered gut toxicity in tumor-bearing mice; assay type: in vivo, C57BL/6J mice; details: C3 25 and 50 mg/kg; LPA 10 mg/kg
[5] = IC50 (nmol/L) 3 min, 3 min pre-incubation, FD substrate
[6] = IC50 (nmol/L) 33 min, 33 min pre-incubation, FD substrate

Sequence of hAChE (P22303 32-614): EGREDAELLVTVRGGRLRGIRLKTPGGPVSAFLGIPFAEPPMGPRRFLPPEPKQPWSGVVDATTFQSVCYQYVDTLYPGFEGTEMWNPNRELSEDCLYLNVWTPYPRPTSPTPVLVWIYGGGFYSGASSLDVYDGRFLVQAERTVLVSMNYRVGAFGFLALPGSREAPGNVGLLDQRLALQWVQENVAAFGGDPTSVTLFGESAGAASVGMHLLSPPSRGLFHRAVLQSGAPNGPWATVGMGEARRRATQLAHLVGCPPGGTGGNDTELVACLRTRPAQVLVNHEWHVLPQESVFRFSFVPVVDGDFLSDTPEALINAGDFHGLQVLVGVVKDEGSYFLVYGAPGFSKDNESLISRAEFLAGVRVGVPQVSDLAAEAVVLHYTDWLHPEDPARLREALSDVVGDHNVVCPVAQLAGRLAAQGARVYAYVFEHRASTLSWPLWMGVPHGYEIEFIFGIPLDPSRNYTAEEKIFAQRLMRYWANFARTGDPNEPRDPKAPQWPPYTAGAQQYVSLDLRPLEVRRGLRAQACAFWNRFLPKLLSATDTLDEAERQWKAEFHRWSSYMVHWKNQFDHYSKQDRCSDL

IC50 [1]: 3.91 µM
Compound: COc1cc2c(cc1OC)C(=O)C(CC1CCN(Cc3ccccc3)CC1)C2 (centres unmarked) [Donepezil, reference compound]

Compound: COc1cc2c(cc1OC)C(=O)/C(=C/c1ccccc1OC(=O)N1CCC(N3CCCCC3)CC1)C2 [Compound C8]
Ratio [1]: 3.25
IC50 [1, 5]: 0.733 ± 0.0717 µM
IC50 [1, 6]: 0.225 ± 0.0134 µM

IC50 [1]: 5.5 µM
Compound: COc1ccccc1/C=C1\Cc2cc(OC)c(OC)cc2C1=O [Compound B4]

IC50 [1]: 2.97 µM
Compound: COc1cc2c(cc1OC)C(=O)/C(=C/c1ccccc1F)C2 [Compound B3]

IC50 [1]: 64.8 µM
Compound: COc1cccc(/C=C2\Cc3cc(OC)c(OC)cc3C2=O)c1 [Compound B5]

IC50 [1]: 0.29 µM
Compound: COc1cc2c(cc1OC)C(=O)/C(=C/c1c(O)cccc1Br)C2 [Compound B20]

IC50 [1]: 17.9 µM
Compound: COc1ccc(/C=C2\Cc3cc(OC)c(OC)cc3C2=O)cc1 [Compound B6]

Compound: COc1cc2c(cc1OC)C(=O)/C(=C/c1ccccc1O)C2 [Compound B7]
enhancement of anti-hCES2A effect relative to A3 [1]: 8.36 folds
Ratio [1]: 0.33
IC50 [1, 5]: 0.106 ± 0.0155 µM
IC50 [1, 6]: 0.325 ± 0.0595 µM
IC50 ([1]; IC50 against hCES2A, FD substrate, 3 min preincubation): 0.11 µM
anti-hAChE activity [2]: very weak anti-hAChE activity

IC50 [1]: 0.4 µM
Compound: COc1cc2c(cc1OC)C(=O)/C(=C/c1cccc(OC)c1O)C2 [Compound B21]

IC50 [1]: 20.9 µM
Compound: COc1cc2c(cc1OC)C(=O)/C(=C/c1ccc(F)cc1)C2 [Compound B1]

Compound: CN(C)C(=O)C(CCN1CCC(O)(c2ccc(Cl)cc2)CC1)(c1ccccc1)c1ccccc1 [LPA, loperamide]
hCES2A activity after dialysis [3]: gradually recovering trend over time
elevated colon IL-6, IL-1β and TNF-α levels [4]: reversed

IC50 [1]: 12.1 µM
Compound: COc1cc2c(cc1OC)C(=O)/C(=C/c1ccccc1Cl)C2 [Compound B2]

Compound: COc1cc2c(cc1OC)C(=O)/C(=C/c1ccccc1OC(=O)N1CCN(C)CC1)C2 [Compound C7]
Ratio [1]: 7.32
IC50 [1, 5]: 0.258 ± 0.0378 µM
IC50 [1, 6]: 0.0353 ± 0.00367 µM
